Measured values from ChEMBL document CHEMBL4052780, “Novel 1,2-dihydroquinazolin-2-ones: Design, synthesis, and biological evaluation against Trypanosoma brucei” (Bioorg Med Chem Lett, 2017).
≈ marks a conversion by molar mass, not a printed value.

Legend:
THP-1 = assay: Cytotoxicity against human THP1 cells assessed as reduction in cell viability after 72 hrs by MTT assay; assay type: cell-based; details: THP-1, 72 h
[1] = tested on: Trypanosoma brucei brucei; assay: Antitrypanosomal activity against bloodstream form of Trypanosoma brucei brucei Lister 427 after 72 hrs by resazurin based fluorescence assay; assay type: functional; details: Lister 427, 72 h
[2] = Kinetic aqueous solubility of the compound by CLND method; assay type: physicochemical; details: read-out: Kinetic_solubility
[3] = Cytotoxicity against human MRC5 SV2 cells after 48 hrs by resazurin based fluorescence assay; assay type: cell-based; details: MRC-5 SV2, 48 h
Leishmania donovani = assay: Antileishmanial activity against intracellular […] stage of Leishmania donovani MHOM/ET/67/HU3 infected in human THP1 cells measured after 72 hrs by luciferase reporter gene assay; assay type: functional, cell-based; details: MHOM/ET/67/HU3, THP-1, 72 h
Trypanosoma cruzi = assay: Antitrypanosomal activity against Trypanosoma cruzi Tulahuen C4 amastigotes infected in rat L6 cells after 96 hrs by beta-galactosidase reporter gene assay; assay type: functional, cell-based; details: Tulahuen C4, L6, 96 h
L6 = assay: Cytotoxicity against rat L6 cells assessed as reduction in cell viability after 72 hrs by resazurin based fluorescence assay; details: L6, 72 h
Liver = assay: Intrinsic clearance in human liver microsomes; assay type: ADME, microsome
[4] = Lipophilicity, log D of the compound at pH 7.4; assay type: physicochemical; details: buffer
[5] = Intrinsic clearance in rat hepatocytes assessed per million cells; assay type: ADME, cell-based, Hepatocyte
[6] = tested on: Trypanosoma brucei brucei; assay: Antitrypanosomal activity against bloodstream form of Trypanosoma brucei brucei Lister 427 after 70 hrs by resazurin based fluorescence assay; assay type: functional; details: Lister 427, 70 h

| SMILES | EC50 (THP-1) [µM] | EC50 [1] [µM] | solubility kinetic [2] [µM] | EC50 [3] [µM] | EC50 (Leishmania donovani) [µM] | EC50 (Trypanosoma cruzi) [µM] | EC50 (L6) [µM] | CLH (Liver) [µL/min/mg] | logD [4] | CLH [5] [µL/min] | EC50 [6] [µM] |
| --- | --- | --- | --- | --- | --- | --- | --- | --- | --- | --- | --- |
| Cc1ccccc1-c1nc(=O)[nH]c2ccc(-c3cc[nH]n3)cc12 | > 50 | 3.14 | 13 (≈ 3.93 µg/mL) | > 50 | > 5 | 5.28 | > 50 | – | – | – | – |
| O=c1nc(C2CCCCC2)c2cc(-c3cc[nH]n3)ccc2[nH]1 | > 50 | 5.76 | 5 (≈ 1.47 µg/mL) | > 50 | > 5 | 20 | > 50 | – | – | – | – |
| Cn1cc(-c2ccc3[nH]c(=O)nc(-c4ccccc4)c3c2)cn1 | > 50 | 5.6 | – | > 50 | > 5 | > 20 | > 50 | – | – | – | – |
| N#Cc1ccc(-c2cccc3[nH]c(=O)nc(-c4ccccc4)c23)cc1 | > 50 | > 40 | – | > 50 | > 5 | > 20 | > 50 | – | – | – | – |
| O=c1nc(-c2ccccc2)c2ccc(-c3cccc(N4CCOCC4)c3)cc2[nH]1 | > 50 | 4.87 | – | > 50 | > 5 | > 20 | 4.53 | – | – | – | – |
| O=c1nc(-c2ccccc2)c2cc(-c3ccccc3F)ccc2[nH]1 | 50 | 3.71 | – | > 50 | > 5 | 8.63 | 55.8 | – | – | – | – |
| O=c1nc(-c2ccccc2)c2ccc(-c3ccncc3)cc2[nH]1 | > 50 | 14.2 | – | > 50 | > 5 | > 20 | – | – | – | – | – |
| Cc1ccc(-c2ccc3[nH]c(=O)nc(-c4ccccc4)c3c2)cn1 | > 50 | 5.29 | – | > 50 | > 5 | 14.8 | > 50 | – | – | – | – |
| Cn1nccc1-c1ccc2[nH]c(=O)nc(-c3ccccc3)c2c1 | > 50 | 5.96 | – | > 50 | > 5 | 17.4 | > 50 | – | – | – | – |
| CNC(=O)c1cccc(-c2ccc3[nH]c(=O)nc(-c4ccccc4)c3c2)c1 | > 50 | 5.7 | – | > 50 | > 5 | > 20 | > 50 | – | – | – | – |
| Cn1ccc(-c2cccc3[nH]c(=O)nc(-c4ccccc4)c23)n1 | > 50 | > 40 | – | > 50 | > 5 | > 20 | > 50 | – | – | – | – |
| Cc1ccncc1-c1ccc2[nH]c(=O)nc(-c3ccccc3)c2c1 | > 50 | 5.07 | – | > 50 | > 5 | 8.94 | > 50 | – | – | – | – |
| O=c1nc(-c2ccccc2)c2cc(-c3cc[nH]n3)ccc2[nH]1 | > 50 | 1.04 | 8 (≈ 2.31 µg/mL) | > 50 | > 5 | 13.3 | > 50 | 19 | 2.2 | < 1 | – |
| CN(C)c1ccc(-c2ccc3[nH]c(=O)nc(-c4ccccc4)c3c2)cn1 | > 50 | 2.04 | – | > 50 | > 5 | 14 | 50 | – | – | – | – |
| O=c1nc(-c2ccccc2)c2ccc(-c3ccc(F)cc3)cc2[nH]1 | > 50 | 4.65 | – | > 50 | > 5 | > 20 | – | – | – | – | – |
| O=c1nc(-c2ccccc2)c2cc(-c3ccc(F)cc3)ccc2[nH]1 | > 50 | 3.88 | – | > 50 | > 5 | 8.73 | 50 | – | – | – | – |
| O=c1nc(-c2ccccc2)c2cc(N3CCOCC3)ccc2[nH]1 | > 50 | 14.1 | 324 (≈ 99.6 µg/mL) | > 50 | > 5 | > 20 | > 50 | – | – | – | – |
| O=c1nc(-c2ccccc2)c2cc(N3CCNCC3)ccc2[nH]1 | > 25 | > 20 | > 1000 | > 25 | > 2.5 | > 10 | > 25 | – | – | – | – |
| COc1ccccc1-c1nc(=O)[nH]c2ccc(-c3cc[nH]n3)cc12 | > 50 | 29 | – | > 50 | > 5 | 20 | > 50 | – | – | – | – |
| O=c1nc(-c2ccccc2)c2cc(-c3ccc(N4CCOCC4)cc3)ccc2[nH]1 | > 50 | 2.17 | – | 23.8 | > 5 | 8.3 | 22.7 | – | – | – | – |

| SMILES | EC50 (THP-1) [µM] | EC50 [1] [µM] | solubility kinetic [2] [µM] | EC50 [3] [µM] | EC50 (Leishmania donovani) [µM] | EC50 (Trypanosoma cruzi) [µM] | EC50 (L6) [µM] | CLH (Liver) [µL/min/mg] | logD [4] | CLH [5] [µL/min] | EC50 [6] [µM] |
| --- | --- | --- | --- | --- | --- | --- | --- | --- | --- | --- | --- |
| CN1CCN(c2ccc3[nH]c(=O)nc(-c4ccccc4)c3c2)CC1 | > 50 | > 40 | > 1000 | > 50 | > 5 | > 20 | > 50 | – | – | – | – |
| Cc1cncc(-c2ccc3[nH]c(=O)nc(-c4ccccc4)c3c2)c1 | > 50 | 5.24 | – | > 50 | > 5 | 9.56 | > 50 | – | – | – | – |
| O=c1nc(-c2ccccc2)c2cc(-c3ccc(C(F)(F)F)nc3)ccc2[nH]1 | > 50 | 5.21 | – | > 50 | > 5 | 18.4 | > 50 | – | – | – | – |
| O=c1nc(-c2ccccc2)c2cc(-c3ccccc3)ccc2[nH]1 | > 50 | 4.88 | – | > 50 | > 5 | > 20 | > 50 | – | – | – | – |
| O=c1nc(-c2ccccc2)c2ccc(-c3cccnc3)cc2[nH]1 | > 50 | > 40 | – | > 50 | > 5 | > 20 | 7.73 | – | – | – | – |
| O=c1nc(C2CCC2)c2cc(-c3cc[nH]n3)ccc2[nH]1 | > 50 | 5.95 | 74 (≈ 19.7 µg/mL) | > 50 | > 5 | 16.9 | > 50 | – | 2.3 | – | – |
| N#Cc1ccc(-c2ccc3[nH]c(=O)nc(-c4ccccc4)c3c2)cc1 | > 50 | 1.71 | – | > 50 | > 5 | 17.4 | > 50 | – | – | – | – |
| O=c1nc(-c2ccccc2)c2cc(-c3ccncc3)ccc2[nH]1 | – | 1.89 | – | > 50 | > 5 | 10.9 | > 50 | – | – | – | 0.84 |
| Cc1cc(-c2ccc3[nH]c(=O)nc(-c4ccccc4)c3c2)ccn1 | > 50 | 5.32 | – | > 50 | > 5 | 16.8 | > 50 | – | – | – | – |
| O=c1nc(-c2ccccc2)c2cc(-c3cncnc3)ccc2[nH]1 | > 50 | 10 | – | > 50 | > 5 | > 20 | > 50 | – | – | – | – |
| Cc1noc(C)c1-c1ccc2[nH]c(=O)nc(-c3ccccc3)c2c1 | > 50 | 2.13 | – | > 50 | > 5 | 11.9 | > 50 | – | – | – | – |
| O=c1nc(-c2ccccc2)c2cc(-c3cccc(N4CCOCC4)c3)ccc2[nH]1 | > 50 | 5.17 | – | > 50 | > 5 | 15.1 | > 50 | – | – | – | – |
| O=c1nc(-c2ccccc2)c2cc(-c3cccnc3)ccc2[nH]1 | > 50 | 5.35 | – | > 50 | > 5 | 15.8 | > 50 | – | – | – | – |
| O=c1nc(-c2ccccc2)c2cc(-c3cnc4ccccc4c3)ccc2[nH]1 | > 50 | 1.73 | – | > 50 | > 5 | 7.19 | > 16 | – | – | – | – |
| O=c1nc(-c2ccccc2)c2cc(-c3cccc(F)c3)ccc2[nH]1 | > 50 | 4.29 | – | > 50 | > 5 | 9.48 | 23 | – | – | – | – |
| O=c1nc(-c2ccccc2)c2ccc(-c3cncnc3)cc2[nH]1 | > 50 | > 40 | – | > 50 | > 5 | > 20 | – | – | – | – | – |
| O=c1nc(-c2ccccc2)c2cc(-c3cn[nH]c3)ccc2[nH]1 | > 50 | 1.44 | – | 22 | > 5 | 8.33 | > 50 | – | – | – | – |
| Cc1ccc2[nH]c(=O)nc(-c3ccccc3)c2c1 | > 50 | > 40 | 80 (≈ 18.9 µg/mL) | > 50 | > 5 | > 20 | > 50 | – | – | – | – |
| O=c1nc(-c2ccccc2)c2cc(-c3ccc(N4CCCC4)nc3)ccc2[nH]1 | > 50 | 1.77 | – | > 50 | > 5 | 6.29 | > 50 | – | – | – | – |
